Laboratory results as given in patent US20100209407A1, “MC-1R, MC-2R, AND/OR MU OPIOID RECEPTORS MODULATION” (BASF BEAUTY CARE SOLUTIONS FRANCE S.A.S., priority 2007, published 2010).

Experiments:
Assay type in all cases: cell-based, human
μ opioid R [1] = test: μ opioid R mRNA expression by quantitative RT-PCR in melanocytes put in contact with actives; conditions: mRNA relative to actin, multiple of untreated control, 24 hours, same conditions as Example 3
MC-1R [2] = test: MC-1R mRNA expression by quantitative RT-PCR in melanocytes put in contact with actives; conditions: mRNA relative to actin, multiple of untreated control, 24 hours, same conditions as Example 3
POMC [3] = test: POMC mRNA expression by quantitative RT-PCR in melanocytes put in contact with actives; conditions: mRNA relative to actin, multiple of untreated control, 24 hours, same conditions as Example 3
Description: The active components are tested for keratinocytes after dissolution in the culturing environment: usually between 0.1% and 2% (v/v) for plants and biotechnological hydrolysates and in particular from 0.5% to 1% and usually between 0.001% and 0.01% for characterized molecules. The present results are obtained with 1% in the culturing environment for plant extracts and biotechnological hydrolysates, and with 0.01% for characterized molecules.
After the contact time of the actives with the cells, for example 24 hours, the environments are eliminated and the cells conserved, for example by freeze-drying at −80° C. after a rinsing with 7.4 pH phosphate solution. The total RNA is extracted, for example, using a 96-well extraction kit on silica columns and divided onto a 96-well spectrophotometer at 260 nm (purity indicator: dosage of proteins at 280 nm). The RNA is diluted, for example at 5 ng/μl. […]
(§1) The parameters of amplification have usually been the following: The technique of RT-PCR in real time is conducted with the “Quanti Ted SYBR Green RT-PCR” kit (Qiagen, France) on wells containing mRNA, in an OPTICON thermocycler, which carries out cycles of amplification. […] At the end of each cycle, fluorescence, which is proportional to the number of fragments amplified, is read. […]

μ opioid R [4] = test: μ opioid R mRNA expression by quantitative RT-PCR in keratinocytes put in contact with actives; conditions: mRNA relative to actin, multiple of untreated control, 24 hours, 1% plant extracts and biotechnological hydrolysates, 0.01% characterized molecules
Description: (§2) In particular, the extracts are obtained by macerating plants (preferably roots, rhizomes, stems, bark, flowers, fruits, seeds, germs, or leaves) at 1-10% (p/p), usually 1-5% in a solvent or a mixture of solvents, usually a mixture of water and alcohol, glycol, or polyol (such as ethanol, glycerol, butylene glycol and other glycols, xylitol, etc.) 100/0 to 0/100, and preferably in water. The extracts obtained are then filtered or distilled in order to recover the soluble portion, which is then filtered, preferably at 0.45 μm. Biotechnological hydrolysates are obtained via the fermentation of plant extracts in the presence of microorganisms usually from the family of lactic bacteria, in particular bactobacillus plantarum, or paracasei, and bifidobacterium, in particular longum or Saccharomyces. These hydrolysates are then filtered, preferably to 0.45 μm, in order to obtain the active components. […]
as §1

MC-2R [5] = test: MC-2R mRNA expression by quantitative RT-PCR in keratinocytes put in contact with actives; conditions: mRNA relative to actin, multiple of untreated control, 24 hours, 1% plant extracts and biotechnological hydrolysates, 0.01% characterized molecules
Description: as §2, §1

μ opioid receptor = test: Detection of μ opioid receptor protein in keratinocytes after action of active components (electrophoresis, immunodetection, image analysis); conditions: semi-quantification via image analysis, multiple of control
Description: (§3) The cells were cultivated at 37° C. in an atmosphere of 5% CO2 in the K-SFM environment K-SFM (Invitrogen) containing BPF (25 mg), EGF (2.5 μg), and normocin.
(§4) The cells were washed once with PBS solution, and the proteins were extracted at 30 min at 4° C. in lysis solution (Tris 50 mM, NaCl 250 mM, pH 7.5, 1% triton), in the presence of protease inhibitors. The lysates were centrifuged for 15 minutes at 13,000 g. The floaters are diluted with Laemmli solution in the presence of beta mercaptoethanol before electrophoresis.
(§5) For immunodetection, the proteins are separated via electrophoresis in 4-12% SDS-polyacrylamide gel. The proteins were transferred onto a nitrocellulose membrane (Biorad). The membranes are then saturated for one hour at ambient temperature in TBS solution with 3% BSA. The proteins are finally immunodetected after incubation of the primary antibody at 4° C. all night, followed by the secondary antibody coupled with Alexa 488 (invitrogen), 1 hour at ambient temperature.
(§6) The antibodies were used in the following dilution: 5 μg/mL anti-MC-1R, 5 μg/mL anti-MC-2R, and 1/1000 anti-μ opioid R.
(§7) Semi-quantification was carried out via image analysis. The actives are the following and are the subject of table IV.

MC-2R [6] = test: Detection of MC-2R protein in keratinocytes after action of active components (electrophoresis, immunodetection, image analysis); conditions: semi-quantification via image analysis, multiple of control
Description: as §3, §4, §5, §6, §7

POMC [7] = test: POMC mRNA expression by quantitative RT-PCR in keratinocytes put in contact with actives; conditions: mRNA relative to actin, multiple of untreated control, 24 hours, 1% plant extracts and biotechnological hydrolysates, 0.01% characterized molecules
Description: as §2, §1

MC-1R [8] = test: MC-1R mRNA expression by quantitative RT-PCR in keratinocytes put in contact with actives; conditions: mRNA relative to actin, multiple of untreated control, 24 hours, 1% plant extracts and biotechnological hydrolysates, 0.01% characterized molecules
Description: as §2, §1

Structure (SMILES)	μ opioid R Control X: (μ opioid R [1]) [Control X]	MC-1R Control X: (MC-1R [2]) [Control X]	POMC Control X: (POMC [3]) [Control X]	μ opioid R Control X: (μ opioid R [4]) [Control X]	MC-2R Control X: (MC-2R [5]) [Control X]	μ opioid R Control X: (μ opioid receptor) [Control X]	MC-2R Control X: (MC-2R [6]) [Control X]	POMC Control X: (POMC [7]) [Control X]	MC-1R Control X: (MC-1R [8]) [Control X]
Cc1nc(C(=O)O)cc2c1[nH]c1ccccc12 [1 methyl beta carbolin-3-carboxylic acid]	1.0	1.0	3.3	–	–	–	–	–	–
C/C=C(/C)C(=O)OC1CC2(C)CCC(C(C)C)C2(O)CCC1(C)O (stereo not drawn) [(Z)-decahydro-6,8a-dihydroxy-1-isopropyl-3a,6-dimethylazulen-5-yl 2-methylbut-2-enoate]	–	–	–	1.0	18.5	1.37	1.99	1	1.0
CC1=CC(=O)C2=C(C)CC(OC(=O)Cc3ccccc3)C3C(C)C(=O)OC3C12 (stereo not drawn) [Phenyl-acetic acid 3,6,9-trimethyl-2,7-dioxo-2,3,3a,4,5,7,9a,9b-octahydro-azuleno[4,5-b]furan-4-yl]	–	–	–	1.0	20.0	1.66	1.96	1	20.0
